In patent publication US6670348B1, “Methods and compositions for destruction of selected proteins” (Sloan-Kettering Institute for Cancer Research, priority 1997, dated 2003):

Experiments:
PI3 kinase = assay: Inhibition of PI3 kinase activity; assay type: biochemical; conditions: FIG. 12
Raf-1 [1] = assay: Relative activity of FIG. 9A-9G compounds; assay type: cell-based; design: key: ++++: most active; −: minimal activity; conditions: Table 4
Excerpt: The compounds of FIGS. 9A-9G have been tested for activity with respect to erbB2 (Her2), raf-1 and estrogen receptors.

androgen receptor = assay: Immunoblotting for receptor presence in LNCaP prostate cancer cells; assay type: cell-based; design: key to androgen receptor detected by immunoblotting: +: the receptor was detected by immunoblotting; −: it was not detectable; ±: a weak or equivocal result; conditions: for androgen receptor detected by immunoblotting: Table 3
ErbB2 [2] = assay: as above; assay type: cell-based; design: key: +: the receptor was detected by immunoblotting; −: it was not detectable; ±: a weak or equivocal result; conditions: Table 3
ErbB2 [3] = assay: Immunoblotting for receptor presence in MCF-7 cells exposed to compound; assay type: cell-based; design: key: +: the receptor was detected by immunoblotting; −: it was not detectable; ±: a weak or equivocal result
Raf-1 [4] = assay: as above; assay type: cell-based; design: key: +: the receptor was detected by immunoblotting; −: it was not detectable; ±: a weak or equivocal result
[5] = system: insulin-like growth factor 1 receptor (IGF1-R); assay: as above; assay type: cell-based; design: key to IGFI-R detected by immunoblotting: +: the receptor was detected by immunoblotting; −: it was not detectable; ±: a weak or equivocal result; conditions: for IGFI-R detected by immunoblotting: Table 2
estrogen receptor [6] = target: T1, estrogen receptor (Homo sapiens, UniProt P03372); assay: as above; assay type: cell-based
T1 construct: testing for the presence of the receptor using receptor-specific antibodies in an immunoblotting experiment; endogenous in cells; host or cells: MCF-7
Protocol: (§1) The effects of these compounds on receptor of various types were evaluated by exposing MCF-7 breast cancer cells, in vitro, to 1 μM levels of the compounds for varying periods of time, and then testing for the presence of the receptor using receptor-specific antibodies in an immunoblotting experiment.

estrogen receptor [7] = target: T1, estrogen receptor; assay: Relative activity of FIG. 9A-9G compounds; assay type: cell-based; design: key to the marks not given beside the values; conditions: Table 4
[8] = system: estrogen receptors and ErbB2 receptors; assay: Selectivity across receptor panel, immunoblotting in MCF-7 cells; assay type: cell-based; conditions: 1 μM
Protocol: as §1, with “experiment. The results are summarized in Table 1, where GM-4-E2 indicates a geldanamycin-estradiol compound with a 4-carbon tether.” for “experiment.”

ErbB2 [9] = assay: Immunoblotting of LN-CAP cells exposed to GM or GM-T (Example 2); assay type: cell-based; conditions: immunoblotting over time, geldanamycin at 0.25 and 1 ug/ml, FIG. 8A
[10] = MCF-7 cells, 1 μM, exposure time 0 hours, Table 1
[11] = MCF-7 cells, 1 μM, exposure time 3 hours, Table 1
[12] = MCF-7 cells, 1 μM, exposure time 6 hours, Table 1
[13] = MCF-7 cells, 1 μM, exposure time 12 hours, Table 1
[14] = MCF-7 cells, 1 μM, exposure time 24 hours, Table 1
[15] = repeat experiment (Example 5), exposure time 0 hours, Table 2
[16] = repeat experiment (Example 5), exposure time 6 hours, Table 2
[17] = repeat experiment (Example 5), exposure time 12 hours, Table 2
[18] = repeat experiment (Example 5), exposure time 24 hours, Table 2
[19] = Example 5, exposure time 0 hours
[20] = Example 5, exposure time 6 hours
[21] = Example 5, exposure time 12 hours
[22] = Example 5, exposure time 24 hours

T1 sequence (P03372 whole entry): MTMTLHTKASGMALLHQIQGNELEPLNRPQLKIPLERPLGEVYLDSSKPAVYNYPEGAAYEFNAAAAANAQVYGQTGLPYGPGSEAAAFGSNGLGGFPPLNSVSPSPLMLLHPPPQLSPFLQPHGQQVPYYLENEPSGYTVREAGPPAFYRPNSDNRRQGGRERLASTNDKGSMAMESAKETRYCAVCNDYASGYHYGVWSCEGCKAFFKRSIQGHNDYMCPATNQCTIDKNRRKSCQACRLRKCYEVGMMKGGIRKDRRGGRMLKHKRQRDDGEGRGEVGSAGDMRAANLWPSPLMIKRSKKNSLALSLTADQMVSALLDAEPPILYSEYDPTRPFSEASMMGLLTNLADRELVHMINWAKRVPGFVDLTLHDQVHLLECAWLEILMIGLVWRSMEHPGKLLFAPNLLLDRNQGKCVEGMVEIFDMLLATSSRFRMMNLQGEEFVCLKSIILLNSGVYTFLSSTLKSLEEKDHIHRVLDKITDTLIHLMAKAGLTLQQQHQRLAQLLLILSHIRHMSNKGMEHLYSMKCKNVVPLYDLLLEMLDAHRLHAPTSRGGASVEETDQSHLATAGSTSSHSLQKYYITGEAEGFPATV

Structure (SMILES): CCCCCCN(C)C=C1C(=O)OC(COC)C2(C)C1=C(O)C(=O)C1=C2C(OC(C)=O)CC2(C)C(=O)CCC12 (stereo not drawn) [E-analog 2]
- inhibition of PI3 kinase activity (PI3 kinase): inhibits PI3 kinase activity

Structure (SMILES): COC1C=CC=C(C)C(=O)NC2=CC(=O)C(NCCCCCCC3(O)CCC4C5CCc6cc(O)ccc6C5CCC43C)=C(CC(C)CC(OC)C(O)C(C)C=C(C)C1OC(N)=O)C2=O (stereo not drawn) [FIG. 9E]
- relative activity, raf-1 (Raf-1 [1]): −

Structure (SMILES): COC1C=CC=C(C)C(=O)NC2=CC(=O)C(NCCCCNCCCCCCC3(O)CCC4C5CCc6cc(O)ccc6C5CCC43C)=C(CC(C)CC(OC)C(O)C(C)C=C(C)C1OC(N)=O)C2=O (stereo not drawn) [FIG. 9F]
- relative activity, raf-1 (Raf-1 [1]): −

Structure (SMILES): COC1C=CC=C(C)C(=O)NC2=CC(=O)C(NCCCCCCN(C)CCCCCCC3(O)CCC4C5CCc6cc(O)ccc6C5CCC43C)=C(CC(C)CC(OC)C(O)C(C)C=C(C)C1OC(N)=O)C2=O (stereo not drawn) [FIG. 9G]
- relative activity, raf-1 (Raf-1 [1]): −

Structure (SMILES): COC1=C2C[C@@H](C)C[C@H](OC)[C@H](O)[C@@H](C)/C=C(\C)[C@H](OC(N)=O)[C@@H](OC)/C=C\C=C(/C)C(=O)NC(=CC1=O)C2=O [GM, geldanamycin, reference compound]
- androgen receptor detected by immunoblotting (androgen receptor; exposure time 0 hours): +
- androgen receptor detected by immunoblotting (androgen receptor; exposure time 3 hours): +
- androgen receptor detected by immunoblotting (androgen receptor; exposure time 6 hours): +
- androgen receptor detected by immunoblotting (androgen receptor; exposure time 12 hours): +
- androgen receptor detected by immunoblotting (androgen receptor; exposure time 24 hours): −
- ErbB2 detected by immunoblotting (ErbB2 [2]; exposure time 0 hours): +
- ErbB2 detected by immunoblotting (ErbB2 [2]; exposure time 3 hours): +
- ErbB2 detected by immunoblotting (ErbB2 [2]; exposure time 6 hours): −
- ErbB2 detected by immunoblotting (ErbB2 [2]; exposure time 12 hours): −
- ErbB2 detected by immunoblotting (ErbB2 [2]; exposure time 24 hours): −
- ErbB2 detected by immunoblotting (ErbB2 [3]; [10]): +
- ErbB2 detected by immunoblotting (ErbB2 [3]; [11]): −
- ErbB2 detected by immunoblotting (ErbB2 [3]; [12]): −
- ErbB2 detected by immunoblotting (ErbB2 [3]; [13]): −
- ErbB2 detected by immunoblotting (ErbB2 [3]; [14]): −
- ErbB2 detected by immunoblotting (ErbB2 [3]; [15]): +
- ErbB2 detected by immunoblotting (ErbB2 [3]; [16]): −
- ErbB2 detected by immunoblotting (ErbB2 [3]; [17]): −
- ErbB2 detected by immunoblotting (ErbB2 [3]; [18]): −
- Raf-1 detected by immunoblotting (Raf-1 [4]; [10]): +
- Raf-1 detected by immunoblotting (Raf-1 [4]; [11]): +
- Raf-1 detected by immunoblotting (Raf-1 [4]; [12]): +
- Raf-1 detected by immunoblotting (Raf-1 [4]; [13]): −
- Raf-1 detected by immunoblotting (Raf-1 [4]; [14]): −
- Raf-1 detected by immunoblotting (Raf-1 [4]; [15]): +
- Raf-1 detected by immunoblotting (Raf-1 [4]; [16]): +
- Raf-1 detected by immunoblotting (Raf-1 [4]; [17]): −
- Raf-1 detected by immunoblotting (Raf-1 [4]; [18]): −
- IGFI-R detected by immunoblotting [5, 19]: +
- IGFI-R detected by immunoblotting [5, 20]: +
- IGFI-R detected by immunoblotting [5, 21]: +
- IGFI-R detected by immunoblotting [5, 22]: −

Structure (SMILES): COC1C=CC=C(C)C(=O)NC2=CC(=O)C(NCC=CCC3CC4C5CCc6cc(O)ccc6C5CCC4(C)C3O)=C(CC(C)CC(OC)C(O)C(C)C=C(C)C1OC(N)=O)C2=O (stereo not drawn) [GM-4-E2]
- androgen receptor detected by immunoblotting (androgen receptor; exposure time 0 hours): +
- androgen receptor detected by immunoblotting (androgen receptor; exposure time 3 hours): +
- androgen receptor detected by immunoblotting (androgen receptor; exposure time 6 hours): +
- androgen receptor detected by immunoblotting (androgen receptor; exposure time 12 hours): +
- androgen receptor detected by immunoblotting (androgen receptor; exposure time 24 hours): +
- destruction of androgen receptors (androgen receptor; in words): does not
- ErbB2 detected by immunoblotting (ErbB2 [2]; exposure time 0 hours): +
- ErbB2 detected by immunoblotting (ErbB2 [2]; exposure time 3 hours): +
- ErbB2 detected by immunoblotting (ErbB2 [2]; exposure time 6 hours): +
- ErbB2 detected by immunoblotting (ErbB2 [2]; exposure time 12 hours): −
- ErbB2 detected by immunoblotting (ErbB2 [2]; exposure time 24 hours): −
- relative activity, raf-1 (Raf-1 [1]): −
- estrogen receptor detected by immunoblotting (estrogen receptor [6]; [10]): +
- estrogen receptor detected by immunoblotting (estrogen receptor [6]; [11]): ±
- estrogen receptor detected by immunoblotting (estrogen receptor [6]; [12]): −
- estrogen receptor detected by immunoblotting (estrogen receptor [6]; [13]): −
- estrogen receptor detected by immunoblotting (estrogen receptor [6]; [14]): −
- estrogen receptor detected by immunoblotting (estrogen receptor [6]; [15]): +
- estrogen receptor detected by immunoblotting (estrogen receptor [6]; [16]): −
- estrogen receptor detected by immunoblotting (estrogen receptor [6]; [17]): −
- estrogen receptor detected by immunoblotting (estrogen receptor [6]; [18]): −
- ErbB2 detected by immunoblotting (ErbB2 [3]; [10]): +
- ErbB2 detected by immunoblotting (ErbB2 [3]; [11]): ±
- ErbB2 detected by immunoblotting (ErbB2 [3]; [12]): −
- ErbB2 detected by immunoblotting (ErbB2 [3]; [13]): −
- ErbB2 detected by immunoblotting (ErbB2 [3]; [14]): −
- ErbB2 detected by immunoblotting (ErbB2 [3]; [15]): +
- ErbB2 detected by immunoblotting (ErbB2 [3]; [16]): ±
- ErbB2 detected by immunoblotting (ErbB2 [3]; [17]): −
- ErbB2 detected by immunoblotting (ErbB2 [3]; [18]): −
- Raf-1 detected by immunoblotting (Raf-1 [4]; [10]): +
- Raf-1 detected by immunoblotting (Raf-1 [4]; [11]): +
- Raf-1 detected by immunoblotting (Raf-1 [4]; [12]): +
- Raf-1 detected by immunoblotting (Raf-1 [4]; [13]): +
- Raf-1 detected by immunoblotting (Raf-1 [4]; [14]): +
- Raf-1 detected by immunoblotting (Raf-1 [4]; [15]): +
- Raf-1 detected by immunoblotting (Raf-1 [4]; [16]): +
- Raf-1 detected by immunoblotting (Raf-1 [4]; [17]): +
- Raf-1 detected by immunoblotting (Raf-1 [4]; [18]): +
- relative activity, estrogen receptor (estrogen receptor [7]): ++++
- selectivity for estrogen receptors and ErbB2 receptors compared to geldanamycin alone [8]: most pronounced
- IGFI-R detected by immunoblotting [5, 19]: +
- IGFI-R detected by immunoblotting [5, 20]: +
- IGFI-R detected by immunoblotting [5, 21]: +
- IGFI-R detected by immunoblotting [5, 22]: +
- effect on IGF1-R compared with geldanamycin alone ([5]; Example 5, in words): less injurious to IGF1-R than geldanamycin alone

Structure (SMILES): COC1C=CC=C(C)C(=O)NC2=CC(=O)C(NCCCCNCCCCCCC3(O)CCC4C5CCc6cc(O)ccc6C5CCC43C)=C(CC(C)CC(OC)C(O)C(C)C=C(C)C1OC(N)=O)C2=O (stereo not drawn) [GM-10-E2]
- estrogen receptor detected by immunoblotting (estrogen receptor [6]; [10]): +
- estrogen receptor detected by immunoblotting (estrogen receptor [6]; [11]): +
- estrogen receptor detected by immunoblotting (estrogen receptor [6]; [12]): +
- estrogen receptor detected by immunoblotting (estrogen receptor [6]; [13]): ±
- estrogen receptor detected by immunoblotting (estrogen receptor [6]; [14]): +
- ErbB2 detected by immunoblotting (ErbB2 [3]; [10]): +
- ErbB2 detected by immunoblotting (ErbB2 [3]; [11]): +
- ErbB2 detected by immunoblotting (ErbB2 [3]; [12]): +
- ErbB2 detected by immunoblotting (ErbB2 [3]; [13]): +
- ErbB2 detected by immunoblotting (ErbB2 [3]; [14]): −
- Raf-1 detected by immunoblotting (Raf-1 [4]; [10]): +
- Raf-1 detected by immunoblotting (Raf-1 [4]; [11]): +
- Raf-1 detected by immunoblotting (Raf-1 [4]; [12]): +
- Raf-1 detected by immunoblotting (Raf-1 [4]; [13]): +
- Raf-1 detected by immunoblotting (Raf-1 [4]; [14]): +

Structure (SMILES): COC1C=CC=C(C)C(=O)NC2=CC(=O)C(NCCCCCCN(C)CCCCCCC3(O)CCC4C5CCc6cc(O)ccc6C5CCC43C)=C(CC(C)CC(OC)C(O)C(C)C=C(C)C1OC(N)=O)C2=O (stereo not drawn) [GM-13-E2]
- estrogen receptor detected by immunoblotting (estrogen receptor [6]; [10]): +
- estrogen receptor detected by immunoblotting (estrogen receptor [6]; [11]): +
- estrogen receptor detected by immunoblotting (estrogen receptor [6]; [12]): +
- estrogen receptor detected by immunoblotting (estrogen receptor [6]; [13]): ±
- estrogen receptor detected by immunoblotting (estrogen receptor [6]; [14]): −
- ErbB2 detected by immunoblotting (ErbB2 [3]; [10]): +
- ErbB2 detected by immunoblotting (ErbB2 [3]; [11]): +
- ErbB2 detected by immunoblotting (ErbB2 [3]; [12]): +
- ErbB2 detected by immunoblotting (ErbB2 [3]; [13]): +
- ErbB2 detected by immunoblotting (ErbB2 [3]; [14]): −
- Raf-1 detected by immunoblotting (Raf-1 [4]; [10]): +
- Raf-1 detected by immunoblotting (Raf-1 [4]; [11]): +
- Raf-1 detected by immunoblotting (Raf-1 [4]; [12]): +
- Raf-1 detected by immunoblotting (Raf-1 [4]; [13]): +
- Raf-1 detected by immunoblotting (Raf-1 [4]; [14]): +

Structure (SMILES): COC1C=CC=C(C)C(=O)NC2=CC(=O)C(NCCCCCCC#CC3(O)CCC4C5CCC6=CC(=O)CCC6(C)C5CCC43C)=C(CC(C)CC(OC)C(O)C(C)C=C(C)C1OC(N)=O)C2=O (stereo not drawn) [GM-T, 17-testosterone-tethered-17-demethoxy-17-GM]
- reduction of levels of ErbB2 (ErbB2 [9]): the least reduction was observed

Structure (SMILES): CCCCCCNC=C1C(=O)OC(COC)C2(C)C1=C(O)C(=O)C1=C2C(OC(C)=O)CC2(C)C(=O)CCC12 (stereo not drawn) [Z-analog 1]
- inhibition of PI3 kinase activity (PI3 kinase): inactive
